PubChem BioAssay AID2305 (GlaxoSmithKline (GSK), 2010)
“And” between values parts separate entries of the source, which are not always exact repeats. Identical values can stand only once.

Test system: P. falciparum 3D7 growth, pLDH absorbance
Test: blood-stage malaria parasite growth potency – strain 3D7, dose response (AID 2305)

SMILES	IC50
COc1cccc(NC(=O)Cn2c(C)c(C#N)c3ccccc32)c1	880 nM
OC1CCCN(Cc2cccc(-c3ccc(-c4nc5ccc(F)cc5[nH]4)cc3)c2)C1 (centres undefined)	780 nM
CCC(C)(C)c1ccc(N2C(N)=NC(N)=NC2(C)C)cc1	10 nM
Cc1cc(N(C)C2CCN(C)CC2)nc(Nc2ccc(Br)cc2)n1	480 nM
COc1cc(C(C)C)nc2ccc(NC(=O)c3ccc(C(=O)Nc4ccc5nc(C(C)C)cc(OC)c5c4)cc3)cc12	580 nM
CCOc1ccc(-c2nc(NC(=O)CS(=O)(=O)c3ccccc3)sc2C)cc1	510 nM
CN(C(=O)/C=C/c1cc(C(F)(F)F)ccc1F)C1CCN(CCCCCNC(=O)/C=C/c2ccc(Cl)c(Cl)c2)C1 (centres undefined)	1090 nM
CCN1[C@@H](c2ccc(Cl)cc2)[C@@H](CNCc2ccccc2O)C[C@@]1(C)CO	310 nM
CCCCCCCCn1ccc(=N)cc1	840 nM
COc1cc(CNCCCNc2cc(=O)c3ccccc3[nH]2)c2c(c1)C(C)CN2C(=O)OC(C)(C)C (centres undefined)	730 nM
Cc1cc(N[C@@H](CC(C)C)C(=O)Nc2ccccc2)nc(NCCc2ccc(F)cc2)n1	1090 nM
CCOc1ccc(NC(C)=O)c(O)c1	840 nM
Cc1ccoc1C(=O)Nc1cccc(-c2cccc(-c3nc4ccccc4[nH]3)c2)c1	1220 nM
COC(=O)c1ccc2nc(-c3cc(-c4cccc(-c5ccccc5)c4)cnc3N)[nH]c2c1	210 nM
CCn1c(-c2nonc2N)nc2cnc(Oc3cccc(NC(=O)c4ccc(OCCN(C(C)C)C(C)C)cc4)c3)cc21	780 nM
Cc1cc(O)c(-c2cc(C(=O)Nc3cccnc3)[nH]n2)cc1C	770 nM
Cc1cc(NC(=O)Nc2cccc(N(C)C)c2)c2ccccc2n1	200 nM
CN1C(C)(C)CC(NC(=O)c2ccc(-c3cc4cc(Cl)c(Cl)cc4[nH]3)o2)CC1(C)C	1120 nM
COc1ccc(S(=O)(=O)NCC2CCCN(CCCCCNC(=O)/C=C/c3ccc(Cl)c(Cl)c3)C2)cc1 (centres undefined)	1060 nM
Cc1ccccc1C1CCN(C2CCC(NC(=O)/C=C/c3ccc(F)cc3)CC2)CC1 (centres undefined)	1340 nM
CCn1cnc2c(Nc3cccc([N+](=O)[O-])c3)nc(N3CCC(N4CCCCC4)CC3)nc21	950 nM
O=[N+]([O-])c1cccc(S(=O)(=O)N2CCN(CC(O)COc3ccc(-c4ccccc4)cc3)CC2)c1 (centres undefined)	1360 nM
CCCC(=O)NC(c1ccc(C(C)C)cc1)c1ccc2cccnc2c1O (centres undefined)	930 nM
COc1cc(C2NCC3(CCOCC3)c3cc4c(cc32)OCCO4)cc(OC)c1OC (centres undefined)	170 nM
O=C(Nc1ccon1)c1cc(-c2cccnc2)nc2ccc(Br)cc12	740 nM

SMILES	IC50
Cc1ccc(NC(=O)c2ccc(CN3CCCN(CC4CCCCC4)CC3)cc2)cc1F	290 nM
CCC(=O)Oc1ccc(NC(=O)c2cccc(OC)c2)cc1	770 nM
COc1ccc(N2CCN(CCCCNC(=O)c3ccc(NC(=O)c4ccc(Cl)cc4)cc3)CC2)c(C)c1	760 nM
COc1ccc(CNCc2cccc(-c3csc(-c4nc5ccccc5[nH]4)c3)c2)cc1	650 nM
COc1ccccc1-c1csc(C(=O)NCC2CCN(Cc3ccc(C(C)C)cc3)C2)c1 (centres undefined)	1350 nM
CC(=NN=C(N)N)c1ccc2ccc3ccccc3c2c1	890 nM
COc1cc(Cc2cnc(N)nc2N)cc(OC)c1OCCCCCN1C(=O)c2ccccc2C1=O	620 nM
c1ccc(Oc2ccc(Nc3ccnc(Nc4ccc(OCCN5CCCCC5)cc4)n3)cc2)cc1	600 nM
O=C(/C=C/c1ccc(Cl)c(Cl)c1)NC1CCC(CN2CCC(c3nc4ccc(O)cc4[nH]3)CC2)CC1 (centres undefined)	240 nM
COc1cc(NC(=O)c2ccc3oc4ccccc4c3c2)ccc1OCCN1CCCCC1	920 nM
CCCCCCCc1ccc(-c2c(C)[nH]c(C)c(Cl)c2=O)cn1	360 nM
CN1C(=O)[C@H](NC(=O)[C@@H](Cc2ccccc2)NC(=S)Nc2ccccc2)N=C(c2ccccc2)c2ccccc21	860 nM
CCc1ccc(NC(=O)c2ccc(CN3CCCN(Cc4cccc(C)c4)CC3)cc2)cc1	1130 nM
CC(=O)Nc1ncc(C(=O)Nc2ccc(-c3cccc(-c4nc5ccc(F)cc5[nH]4)c3)cc2)s1	350 nM
CCOc1ccc(C2CCN(CCN3CCC(NC(=O)c4ccc(-c5ccc(C(F)(F)F)cc5)cc4)CC3)CC2)c(OCC2CC2)c1	830 nM
Cc1ccc(C[C@@H](C)NC[C@H](O)c2cccc(C(F)(F)F)c2)cc1	880 nM and 710 nM
COc1ccc(CCN(C)CCOc2ccc(NC(=O)c3ccc([N+](=O)[O-])c4c(=O)c5ccccc5[nH]c34)cc2)cc1OC	930 nM
Nc1ncc(-c2cn[nH]c2)cc1-c1nc2ccc(Cl)cc2[nH]1	800 nM
Cc1cc(N[C@@H](CC(C)C)C(=O)NCCc2ccccc2)nc(NCC2CCCCC2)n1	900 nM
Cc1cccc2[nH]c(-c3ccc(-c4cccc(CNCCNC(=O)c5ccnn5C)c4)s3)nc12	220 nM
CC(C(=O)N1CCCC1)N1CCN(C(c2ccccc2)c2ccccc2)CC1 (centres undefined)	1100 nM
CN(C)CCN(C)Cc1cccc(-c2ccc3c(Nc4ccc(F)cc4Cl)ccnc3c2)c1	110 nM
Cc1cccc2[nH]c(-c3ccc(-c4cccc(NC(=O)Nc5ccc(Cl)c(Cl)c5)c4)s3)nc12	590 nM
Nc1c2c(nc3ccc(Oc4ccc(Br)cc4Br)cc13)CCCC2	860 nM
FC(F)(F)c1ccc2nccc(NN=Cc3cccc(Cl)c3)c2c1	820 nM

SMILES	IC50
Cc1ccc(/C=C/C(=O)N2CCC(CCN3CCC(c4c[nH]c5ccccc45)CC3)CC2)cc1C	930 nM
Cn1c(NC2CCN(CC3CCN(C(=O)/C=C/c4ccc(Cl)c(Cl)c4)CC3)CC2)nc2ccccc21	150 nM
COc1ccc2nc(C)cc(NN=Cc3cccc(F)c3)c2c1	290 nM
Clc1ccccc1C=NNc1ccnc2ccccc12	850 nM
CC(C)(C)c1ccc(C(=O)N2CCC3(CC2)C(=O)N(CC(=O)NCC2CCCO2)CN3c2ccccc2)cc1 (centres undefined)	230 nM
COC(=O)c1cccc(OCCNC2CCN(C[C@H](O)c3ccnc4ccc(OC)cc34)CC2)c1	340 nM
O=C(Nc1ccc(-c2nc3ccccc3[nH]2)cc1)c1ccc(Cl)c([N+](=O)[O-])c1	800 nM
CN(C)CCOc1cccc(NC(=O)Nc2ccc(-c3ccccc3)cc2)c1	880 nM
CCCCCCN1CCN(Cc2cccc(NC(=O)c3cccc(OCC)c3)c2)CC1	1110 nM
Cc1noc(C)c1-c1cccc(CNCc2cccc(-c3cccc(-c4nc5ccc(C(F)(F)F)cc5[nH]4)c3)c2)c1	460 nM
Cc1cc(F)ccc1[C@H]1C[C@H](N2CCOCC2)CCN1C(=O)N(C)[C@@H](C)c1cc(C(F)(F)F)cc(C(F)(F)F)c1	760 nM
CN(C)CCCOc1cc(NC(=O)Nc2ccc(-c3ccncc3)c3ccccc23)ccc1I	700 nM
Cc1ccccc1Oc1nc2ccccc2nc1SCC(=O)NC(C)C	200 nM
CCC(=O)c1c(C)n(-c2ncnc3c2nc(C)n3-c2ccc(C)cc2C)c2ccccc12	650 nM
Clc1cccc(C23N=C(Nc4nc5ccccc5[nH]4)NC2(c2ccccc2)NC(Nc2nc4ccccc4[nH]2)=N3)c1 (centres undefined)	520 nM
Cc1cc(NC2CCCC2)nc(Nc2ccc(F)cc2)n1	470 nM
COc1cc2ccccc2cc1CCNCCCCNCCc1cc2ccccc2cc1OC	400 nM
CN1CCN(c2ccnc3ccc(NC(=O)Nc4cccc5c(C#N)cccc45)cc23)CC1	1050 nM
Cc1nc(C)c(CC(=O)Nc2cccc(-c3cccc(-c4nc5c(C)cccc5[nH]4)c3)c2)s1	750 nM
O=C(NCCNc1ccnc(Nc2ccc(F)cc2)n1)Nc1ccccc1F	760 nM
COc1ccc(CNCCCCCNCc2ccc(Cl)c(Cl)c2)cc1Cl	750 nM
O=C(Nc1ccccc1Cl)c1cc2ccccc2cc1O	1010 nM
CCCCCCOc1ccc2ccccc2c1CNCCCCCCNCc1c(OCCCCCC)ccc2ccccc12	1060 nM
Cc1cc(=O)c(-c2ccc(Oc3ccc(F)cc3)cc2)c(C)[nH]1	970 nM
CN(Cc1cccc(O)c1)C1CCN(c2cc(NC(=O)c3ccc(F)cc3)ccn2)CC1	960 nM

SMILES	IC50
FC(F)(F)c1ccc2nc(-c3ccc(-c4ccc(CNCC5CCCO5)cc4)s3)[nH]c2c1 (centres undefined)	160 nM
CN(C(=O)c1nn(-c2ccccn2)c2nccc(-c3cccs3)c12)C1CCCCC1	1240 nM
Cc1cc2[nH]c(-c3ccc(C(=O)NCCCN4CCN(c5cccc(Cl)c5)CC4)cc3)nc2cc1Cl	770 nM
CCNc1cc(C(=O)N[C@@H](Cc2ccc(Cl)cc2)[C@H](O)CNC2CCCCC2)cc(N2CCCCS2(=O)=O)c1	150 nM
CN1CCN(c2ccnc3ccc(NC(=O)Nc4cccc5ccccc45)cc23)CC1	490 nM
Oc1ccc(CCNc2nc(NCc3cccc(-c4cc(C(F)(F)F)ccc4Cl)c3)nc(N3CCNCC3)n2)cc1	1780 nM
Fc1ccc(CN2CCN(c3ncnc4cc(-c5ccccc5)sc34)CC2)cc1	1020 nM
CC(=O)Oc1c(C2C=CCCC2)c(OC(C)=O)c2ccccc2c1OC(C)=O (centres undefined)	600 nM
CCS(=O)(=O)Nc1ccc2[nH]c(O)c(C(=Nc3ccc(CN4CCCCC4)cc3)c3ccccc3)c2c1	60 nM
CC(=O)N[C@@H]1c2cc(C(C)=O)ccc2OC(C)(C)[C@@H]1O	980 nM
O=C(Nc1cc(=O)[nH]c2nc(-c3ccccc3)nn12)C1CCCCC1	420 nM
CC(C)CN(C)c1ncnc2c1nc(-c1cncc(C#N)c1)n2CCNCc1ccccc1	1360 nM
COc1cccc(-c2ccc3c(-c4ccc(F)cc4)cnc(N)c3c2)c1	810 nM
C=CCn1c(=N)c(C(=O)NC2CCCCC2)cc2c(=O)n3cccc(C)c3nc21	1040 nM
COc1cc2nc(N3CCC(CNC(=O)/C=C/c4cccc(C)c4)CC3)nc(N)c2cc1OC	680 nM
CNC(=O)CC(=O)NCCc1ccc(Cl)cc1	810 nM
COC(=O)c1sccc1NC(=S)NC1CCC(CN2CCC(c3c[nH]c4ccccc34)CC2)CC1 (centres undefined)	920 nM and 570 nM
CN1CCN(CCCSc2ccc3c(c2)ncn3-c2cc(OCc3ccccc3C(F)(F)F)c(C(N)=O)s2)CC1	440 nM
COc1ccc2nccc([C@@H](O)CN3CCC(NC(=O)c4cc5cccnc5[nH]4)CC3)c2c1	890 nM
O=C(/C=C/c1ccc(Cl)c(Cl)c1)NCCCCCN1CCC(CCCNC(=O)Nc2ccc(C(F)(F)F)cc2)CC1	870 nM
CCCN(CC1CC1)c1ncc(-c2ccccc2CNCc2ccccc2O)cn1	500 nM
O=C(Nc1ccc(CCNCc2ccccc2)cc1)Nc1ccc(OC(F)(F)F)cc1	580 nM
O=C(N[C@@H](CC1CCCCC1)C(=O)NCCN1CCOCC1)c1ccc(O)c(-c2ccc(Cl)c(Cl)c2)c1	180 nM
O=C(Nc1ccc(-c2cccc(-c3nc4ccc(F)cc4[nH]3)c2)cc1)Nc1ccsc1	690 nM
